The text below walks through data of US20060183786A1, “Injectable long-acting analgesic composition comprising an ester derivative of ketorolac” (CHI MEI FOUNDATION HOSPITAL, priority 2005, published 2006).

Converted amounts (≈) assume the structure as drawn.

The subject of series [1] is rats intraplantarly injected with carrageenin. Description: Paw swelling (paw thickness), anti-inflammatory effect after intramuscular injection. The series is classed as in vivo, Sprague-Dawley rats. The procedure: Louis, Mo., USA) was injected subcutaneously into the plantar space of the right hind paw of all rats. Intraplantar injections were made with a Hamilton syringe and a 30-gauge hypodermic needle. The needle was inserted into the pad region of the glabrous skin and moved 6-8 mm proximal toward the tarsal region. • (5) Measurements of the pain threshold values of rat paw: Paw pressure test was conducted using the TSE Analgesia System (TSE Technical & Scientific Equipment GmbH; Bad Homburg, Germany). […] Paw thickness was measured immediately prior to and following carrageenin injection. […] A two-way analysis of variance with one-way repeated method was used to compare the differences between groups. The Bonferroni test was used as a post-hoc test to compare the differences between the medication groups and the vehicle group at each time point. […] (“*” means P<0.05 whereas “+” means P<0.01 when compared with the vehicle group). The two-way analysis of variance with one-way repeated method is a powerful statistical method which can be used to evaluate the differences among groups. […] In order to keep a similar condition of carrageenin-induced paw edema and pain at each testing day, this 4-day study was accomplished by conducting four one-day studies consecutively (i.e. from day 1 to day 4). All rats received only one intramuscular injection of either ketorolac propyl ester (80, 160, or 240 μmole/Kg, prepared in sesame oil) or the vehicle (sesame oil only) at the start of study (day 1) and then (1 minute later) received intraplantar injection of carrageenin at either day 1, 2, 3, or day 4. Each rat received only one injection of carrageenin. […] A three-way analysis of variance with one-way repeated method was used to compare the differences between groups. The Bonferroni test was used as a post-hoc test to compare the differences between the medication groups and the vehicle group at each time point. […] (“*” means P<0.05 whereas “+” means P<0.01 when compared with the vehicle group). The three-way analysis of variance with one-way repeated method is a powerful statistical method which can be used to evaluate the differences among groups. […] A 4-day study was carried out. […] All rats received only one intramuscular injection of a tested analgesic drug (ketorolac or a ketorolac ester derivative, prepared in sesame oil) or the vehicle (sesame oil only) at the start of study (day 1) and then received intraplantar injection of carrageenin at either day 1, 2, 3, or day 4. Each rat received only one injection of carrageenin. […] All rats received only one intramuscular injection of either a tested analgesic drug (ketorolac propyl ester prepared in four different oils) or the vehicle (4 different oils) at the start of study (day 1) and then received intraplantar injection of carrageenin at either day 1, 2, 3, or day 4. Each rat received only one injection of carrageenin.

The test system is the same in series [2]. Description: Paw pressure test (pain threshold of paw), analgesic effect after intramuscular injection. It is filed as in vivo, Sprague-Dawley rats. The procedure:
Louis, Mo., USA) was injected subcutaneously into the plantar space of the right hind paw of all rats. Intraplantar injections were made with a Hamilton syringe and a 30-gauge hypodermic needle. The needle was inserted into the pad region of the glabrous skin and moved 6-8 mm proximal toward the tarsal region. • (5) Measurements of the pain threshold values of rat paw: Paw pressure test was conducted using the TSE Analgesia System (TSE Technical & Scientific Equipment GmbH; Bad Homburg, Germany). The TSE Analgesia System is designed to perform rapid and accurate screening of analgesic drug candidates on the normal and inflamed paw of small laboratory animals, according to the Randall-Selitto method. The data can be measured and recorded by a control unit and a computer system connected thereto. The animal's paw is placed on a plinth and is applied with an increasing pressure generated from the tip of a sensor. The applied pressure is measured. The sensor is made from smooth plastic to prevent the paw from being injured when the animal withdraws its paw suddenly. To start the test, a foot switch is pressed and the sensor is lowered rapidly until it contacts the rat's paw. Thereafter, the sensor is lowered in small steps until the pain threshold is reached, at which time the tested animal (rat) starts to move vigorously and tries to withdraw its paw. The foot switch is then released and the sensor is raised. The value of the applied pressure measured at the pain threshold is shown on the display and simultaneously delivered to the computer system, which is installed with a software system capable of transferring the measured data into Excel format, which can be used as a basis for further evaluation, e.g., statistics. The TSE Analgesia system is suitable for rats, mice and other small laboratory animals. […] To prevent tissue damage, a cutoff pressure of 350 gm was set. […] In order to keep a similar condition of carrageenin-induced paw edema and pain at each testing day, this 4-day study was accomplished by conducting four one-day studies consecutively (i.e. from day 1 to day 4). All rats received only one intramuscular injection of either ketorolac propyl ester ([…], […]) or the vehicle ([…]) at the start of study (day 1) and then (1 minute later) received intraplantar injection of carrageenin at either day 1, 2, 3, or day 4. Each rat received only one injection of carrageenin. […] A three-way analysis of variance with one-way repeated method was used to compare the differences between groups. The Bonferroni test was used as a post-hoc test to compare the differences between the medication groups and the vehicle group at each time point. […] (“*” means P<0.05 whereas “+” means P<0.01 when compared with the vehicle group). The three-way analysis of variance with one-way repeated method is a powerful statistical method which can be used to evaluate the differences among groups. […] A 4-day study was carried out. […] All rats received only one intramuscular injection of a tested analgesic drug (ketorolac or a ketorolac ester derivative, […]) or the vehicle ([…]) at the start of study (day 1) and then received intraplantar injection of carrageenin at either day 1, 2, 3, or day 4. Each rat received only one injection of carrageenin.

Series [3] can be described thus: Solubility in sesame oil. The series is classed as physicochemical.
For series [4] the following is noted: parenteral, n>20,000; cited from earlier work.
The conditions of series [5]: cited from earlier work.
For series [6] the following is noted: cited from earlier work. This is another data set of the same source.
The conditions of series [7]: human serum, compared with KEE; cited from earlier work.
For series [8] the following is noted: human cadaver skin, compared with KEE; cited from earlier work.
The conditions of series [9]: cited from earlier work. This is another data set of the same source.
For series [10] the following is noted: 30 mg (=80 μmole) given to an adult, clinical practice; cited from earlier work.
Series [11] has as its system rats intraplantarly injected with carrageenin. The experiment in a line: Paw swelling (paw thickness), anti-inflammatory effect after intramuscular injection. It is filed as in vivo, Sprague-Dawley rats. Conditions: for Anti-inflammatory duration (h): in water.
The conditions of series [12]: compared with commercially available ketorolac (trometamole salt); cited from earlier work.
[13] abbreviates: 240 μmole/Kg intramuscular, oil suspension in sesame oil.
Setting [14] is: 240 μmole/Kg intramuscular, in oil A (sesame oil).
The mark [15] stands for this setting: 80 μmole/Kg intramuscular, in oil A (sesame oil).
[16] abbreviates: 160 μmole/Kg intramuscular, in oil A (sesame oil).
Setting [17] is: 240 μmole/Kg intramuscular, in oil B (soybean oil).
Setting [18] is: 240 μmole/Kg intramuscular, in oil C (peanut oil).
The mark [19] stands for this setting: 240 μmole/Kg intramuscular, in oil D (castor oil).
[20] abbreviates: 240 μmole/Kg intramuscular, in oil E (cotton seed oil).
The mark [21] stands for this setting: intramuscular injection of 24-240 μmole, in 0.9% saline.

The solubility is how much of the substance goes into solution per volume. For the molecule `O=C(c1ccccc1)c1ccc2n1CCC2C(=O)O` (racemic) [Ketorolac, (±)-5-benzoyl-2,3-dihydro-1H-pyrrolizine-1-carboxylic acid], the anti-inflammatory effect entry in series [1] (setting [13]) is “failed to provide significant analgesic and antiinflamatory effects”. The analgesic effect entry in series [2] (setting [13]) was “failed to provide significant analgesic and antiinflamatory effects”. For the same molecule, the solubility in sesame oil in series [3] was 10.6 mM (≈ 2710 µg/mL). Besides, the concentration in solution in series [3] (oil or lipid) (solubility) was 2700 µg/mL (≈ 10.6 mM). For the same molecule, in [4], the “odds ratio (OR), risk of gastrointestinal bleeding compared to opioids” value is on record as 1.30 and the “odds ratio (OR), risk of operative site bleeding compared to opioids” value is listed as 1.02. In [5], the “bound to plasma proteins” value is recorded as above 99%. Also, the “mean terminal elimination half-life (T1/2β)” value in [6] (healthy volunteers) is “about 5 hours”. Also, the “apparent volume of distribution (Vd)” value in [6] (in vivo) was below 0.3 L/kg.
Consider `CN(C)C(=O)COC(=O)C1CCn2c(C(=O)c3ccccc3)ccc21` (centres unmarked) [KDAE, ketorolac [(N,N-dimethylamino)carbonyl]methyl ester], for which the “enzymatic hydrolysis to liberate the parent drug” value in series [7] is listed as “faster enzymatic hydrolysis”. The skin flux entry in series [8] is “relatively higher skin flux”.
Take `O=C(c1ccccc1)c1ccc2n1CCC2C(=O)OCc1ccccc1` (centres unmarked) [Ketorolac benzyl ester]: the “Anti-inflammatory duration” value in [1] (setting [14]) is given as 56 h. The “Analgesic duration” value in series [2] (setting [14]) was 56 h.
Consider `CCCCCCCCCCCCCCCCOC(=O)C1CCn2c(C(=O)c3ccccc3)ccc21` (centres unmarked) [Ketorolac cetyl ester], for which the “Anti-inflammatory duration” value in series [1] (setting [14]) worked out at 78 h. Besides, the “Analgesic duration” value in [2] (setting [14]) is reported as 74 h.
For the molecule `CCCCCCCCCCOC(=O)C1CCn2c(C(=O)c3ccccc3)ccc21` (centres unmarked) [Ketorolac decyl ester], the “Anti-inflammatory duration” value in series [1] (setting [14]) is 76 h. Further, the “Analgesic duration” value in series [2] (setting [14]) is reported as 76 h.
`CCCCCCCOC(=O)C1CCn2c(C(=O)c3ccccc3)ccc21` (centres unmarked) [Ketorolac heptyl ester]: in series [1] (setting [14]), the “Anti-inflammatory duration” value came out at 74 h. The “Analgesic duration” value in series [2] (setting [14]) is reported as 74 h.
For the molecule `CCCCCOC(=O)C1CCn2c(C(=O)c3ccccc3)ccc21` (centres unmarked) [Ketorolac pentyl ester], the “Anti-inflammatory duration” value in [1] (setting [14]) turned out to be 56 h. The “Analgesic duration” value in series [2] (setting [14]) was found to be 56 h.
Take `CCCOC(=O)C1CCn2c(C(=O)c3ccccc3)ccc21` (centres unmarked) [Ketorolac propyl ester]: the “Anti-inflammatory duration” value is recorded as 6 h in [1] (setting [15]); 30 h in [1] (setting [16]); 54 h in series [1] (setting [14]); 54 h in [1] (setting [17]); 56 h in series [1] (setting [18]); 56 h in [1] (setting [19]). For the same molecule, in [1] (setting [20]), the “Anti-inflammatory duration” value turned out to be 78 h. Moreover, the “Analgesic duration” value in series [2] (setting [15]) is recorded as 6 h; in series [2] (setting [16]), 28 h; in series [2] (setting [14]), 54 h; in series [2] (setting [19]), 56 h; in series [2] (setting [20]), 78 h. The “Analgesic duration (h)” value is given as 56, 56 h in series [2] (setting [17]) and 56, 56 h in series [2] (setting [18]). The “permeation rate of ketorolac in rat skin (maximum)” value in [9] is 46.61 nmole/cm^2/h.
Consider `CC(C)(C)OC(=O)C1CCn2c(C(=O)c3ccccc3)ccc21` (centres unmarked) [Ketorolac tert-butyl ester], for which, in series [1] (setting [14]), the “Anti-inflammatory duration” value came to 56 h. Besides, in series [2] (setting [14]), the “Analgesic duration” value turned out to be 56 h.
With `NC(CO)(CO)CO.O=C(c1ccccc1)c1ccc2n1CCC2C(=O)O` (centres unmarked) [Ketorolac tromethamine, ketorolac tromethamine, reference compound], the duration of action in series [10] and in series [2] (intramuscular injection 30 mg/kg in rats) was 6 to 8 h in each case. Also, the “Anti-inflammatory duration (h)” value is recorded as 8, 8, 8 h in series [11] (24 μmole/Kg intramuscular); 8, 8, 8 h in series [11] (80 μmole/Kg intramuscular); 8, 8, 8 h in [11] (240 μmole/Kg intramuscular). The “duration of significant anti-inflammatory effects (paw swelling)” value in [11] (setting [21]) is 8 h. The “Analgesic duration” value in series [2] (24 μmole/Kg intramuscular, in water) came to 6 h; in series [2] (80 μmole/Kg intramuscular, in water) it was 6 h; in series [2] (240 μmole/Kg intramuscular, in water), 8 h. The “duration of significant analgesic effects (pain threshold of paw)” value in series [2] (setting [21]) is 6 to 8 h.
Consider `CCN(CC)CCOC(=O)C1CCn2c(C(=O)c3ccccc3)ccc21.O=C(O)/C=C\C(=O)O` (centres unmarked) [maleate salt of 2-(diethylamino)ethyl ester of ketorolac], for which the “undesired side effects (gastrointestinal irritation and ulceration)” value in [12] is “less undesired side effects”.
Consider `O=C(O)C(=O)O.O=C(c1ccccc1)c1ccc2n1CCC2C(=O)OCCN1CCCC1` (centres unmarked) [oxalate salt of 2-(1-pyrrolidinyl)ethylester of ketorolac], for which the “undesired side effects (gastrointestinal irritation and ulceration)” value in [12] is on record as “less undesired side effects”.
